We go through 20 compounds from patent US12180226B2, “Spirotricycle RIPK1 inhibitors and methods of uses thereof” (Merck Sharp & Dohme LLC, priority 2021, dated 2024).

Where a name gives a salt, the structure may show the parent alone.

In the experiment the target is RIPK1 (recombinant GST-RIPK1 kinase domain, residues 1-327) (Homo sapiens (Human), UniProt Q13546). Nature of the experiment: RIPK1-ADP-Glo Enzymatic Assay. Type of experiment: biochemical. As to conditions: ADP-Glo; 25 nM GST-RIPK1, 300 μM ATP; assay lower limit ~25 nM; read-out: RIPK1 V0 Ec50. Put shortly: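 Luminescent ADP-Glo readout of ATP-to-ADP conversion. Conditions: 25 nM enzyme, 300 μM ATP, 3 μM dephospho-MBP, pH 7.3 HEPES buffer with 20 mM MgCl2; 30 min compound pre-incubation, 150 min reaction. EC50 via four-parameter sigmoidal regression; assay floor ~25 nM.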
RIPK1 (recombinant GST-RIPK1 kinase domain, residues 1-327), sequence (Q13546 1-327): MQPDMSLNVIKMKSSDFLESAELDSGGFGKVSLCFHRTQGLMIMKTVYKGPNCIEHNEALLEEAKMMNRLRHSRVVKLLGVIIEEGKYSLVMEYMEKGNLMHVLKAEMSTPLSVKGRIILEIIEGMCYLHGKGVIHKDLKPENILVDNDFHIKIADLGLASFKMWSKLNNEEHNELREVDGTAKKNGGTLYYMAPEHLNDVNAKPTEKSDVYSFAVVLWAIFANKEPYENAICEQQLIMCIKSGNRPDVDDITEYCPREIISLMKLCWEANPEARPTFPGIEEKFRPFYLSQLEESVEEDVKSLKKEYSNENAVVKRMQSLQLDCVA
Background: ADP-Glo first removes unused ATP, then detects ADP through luciferase.
In the case of `Cc1cc2nccc(N3CCC4(CC3)O[C@@H]3CC[C@@H](c5cc(F)cc(F)c5)N3C4=O)n2n1` [Example 4.85, (5′S,7a′R)-5′-(3,5-difluorophenyl)-1-(2-methylpyrazolo[1,5-a]pyrimidin-7-yl)tetrahydro-3′H-spiro[piperidine-4,2′-pyrrolo[2,1-b]oxazol]-3′-one, TFA salt], the EC50 amounted to 63.4 nM.

With `N#Cc1ccc(N2CCC3(CC2)O[C@@H]2CC[C@@H](c4ccccc4F)N2C3=O)n2ncnc12` [Example 4.249, 5-[(5′S,7a′R)-5′-(2-fluorophenyl)-3′-oxotetrahydro-1H,3′H-spiro[piperidine-4,2′-pyrrolo[2,1-b] [1,3]oxazol]-1-yl][1,2,4]triazolo[1,5-a] pyridine-8-carbonitrile], the EC50 was < 25 nM. With `O=C1N2[C@@H](CC[C@H]2c2ccccc2F)OC12CCN(c1ccnc3c(F)cnn13)CC2` [Example 4.102, (5′S,7a′R)-5′-(2-fluorophenyl)-1-(3-fluoropyrazolo[1,5-a]pyrimidin-7-yl)tetrahydro-3′H-spiro[piperidine-4,2′-pyrrolo[2,1-b]oxazol]-3′-one], the EC50 was < 25 nM.

For `O=C1N2[C@@H](CC[C@H]2c2cc(F)cc(F)c2)OC12CCN(c1ccc(Cl)c3ccnn13)CC2` [Example 15.1, (5′S,7a′R)-1-(4-chloropyrazolo[1,5-a]pyridin-7-yl)-5′-(3,5-difluorophenyl)tetrahydro-3′H-spiro[piperidine-4,2′-pyrrolo[2,1-b]oxazol]-3′-one, TFA], the EC50 is < 25 nM.

On to `O=C(c1cnccn1)N1CCC2(CC1)O[C@@H]1CC[C@@H](c3cc(F)cc(F)c3)N1C2=O` [Example 6.85, (5′S,7a′R)-5′-(3,5-difluorophenyl)-1-(pyrazine-2-carbon-yl)tetrahydro-3′H-spiro[piperidine-4,2′-pyrrolo[2,1-b][1,3]-oxazol]-3′-one], for which the EC50 was found to be 36.9 nM. The value for `O=C(c1ccccc1)N1CCC2(CC1)CC1COC(c3cc(F)cc(F)c3)N1C2=O` (centres unmarked) [Example 6.163, 1-(benzenecarbonyl)-3′-(3,5-difluoro-phenyl)dihydro-1′H,3′H,5′H-spiro [piperidine-4,6′-pyrrolo[1,2-c][1,3]oxazol]-5′-one] was 29.1 nM; that for `CC(F)(F)c1ccnc(N2CCC3(CC2)O[C@@H]2CC[C@@H](c4ccccc4)N2C3=O)c1` [Example 4.262, (5′S,7a′R)-1-[4-(1,1-difluoroethyl)pyridin-2-yl]-5′-phenyltetrahydro-3′H-spiro[piperidine-4,2′-pyrrolo[2,1-b] [1,3]oxazol]-3′-one] was 256 nM; that for `Cc1nc(N2CCC3(CC2)O[C@@H]2CC[C@@H](c4ccccc4)N2C3=O)ncc1-c1ncco1` [Example 21.11, (5′S,7a′R)-1-[4-methyl-5-(1,3-oxazol-2-yl)pyrimidin-2-yl]-5′-phenyltetrahydro-3′H-spiro[piperidine-4,2′-pyrrolo[2,1-b][1,3]oxazol]-3′-one] was < 25 nM. As for `CCOc1ncccc1C(=O)N1CCC2(CC1)O[C@@H]1CC[C@@H](c3cc(F)cc(F)c3)N1C2=O` [Example 6.38, (5′S,7a′R)-5′-(3,5-difluorophenyl)-1-(2-ethoxypyridine-3-carbonyl)tetrahydro-3′H-spiro[piperidine-4,2′-pyrrolo[2,1-b] [1,3]oxazol]-3′-one], the figure is 867 nM; as for `O=C1N2[C@@H](CC[C@H]2c2cccc(F)c2)OC12CCN(c1ccnc3c(F)cnn13)CC2` [Example 4.129, (5′S,7a′R)-5′-(3-fluorophenyl)-1-(3-fluoropyrazolo[1,5-a]pyrimidin-7-yl)tetrahydro-3′H-spiro[piperidine-4,2′-pyrrolo[2,1-b] [1,3]oxazol]-3′-one], < 25 nM. As to `O=C(c1c(F)cccc1F)N1CCC2(CC1)O[C@@H]1CC[C@@H](c3cc(F)cc(F)c3)N1C2=O` [Example 5.56, (5′S,7a′R)-1-(2,6-difluoro-benzoyl)-5′-(3,5-difluoro-phenyl)tetrahydro-3′H-spiro[piperidine-4,2′-pyrrolo[2,1-b]oxazol]-3'-one], the half-maximal effective concentration (EC50) is < 25 nM. As for `C#Cc1cc(C(=O)N2CCC3(CC2)O[C@@H]2CC[C@@H](c4cc(F)cc(F)c4)N2C3=O)ccn1` [Example 5.42, (5′S,7a′R)-5′-(3,5-difluoro-phenyl)-1-(2-ethynylpyri-dine-4-carbonyl)tetra-hydro-3′H-spiro[piperi-dine-4,2′-pyrrolo-[2,1-b] [1,3]oxazol]-3′-one], the figure is 39.2 nM. As for `N#Cc1cccc(C(=O)N2CCC3(CC2)O[C@@H]2CC[C@@H](c4ccccc4)N2C3=O)c1` [Example 6.153, 3-[(5′S,7a′R)-3′-oxo-5′-phenyltetrahydro-1H,3′H-spiro[piperi-dine-4,2′-pyrrolo[2,1-b][1,3]oxazole]-1-carbonyl]benzonitrile], the figure is < 25 nM; as for `O=C(c1cccc(C2CC2)c1)N1CCC2(CC1)O[C@@H]1CC[C@@H](c3cccc(F)c3)N1C2=O` [Example 6.118, (5′S,7a′R)-1-(3-cyclopropylbenzene-1-carbonyl)-5′-(3-fluorophenyl)tetra-hydro-3′H-spiro [piperidine-4,2′-pyrrolo[2,1-b][1,3]oxazol]-3′-one], < 25 nM. Regarding `O=C1N2[C@@H](CC[C@H]2c2cccc(F)c2)OC12CCN(c1cc(C(F)F)ncn1)CC2` [Example 4.52, (5′S,7a′R)-1-[6-(difluoromethyl)pyrimidin-4-yl]-5′-(3-fluorophenyl)tetrahydro-3′H-spiro[piperidine-4,2′-pyrrolo[2,1-b] [1,3]oxazol]-3′-one], the half-maximal effective concentration (EC50) came to 69 nM. For `O=C(c1nnc(-c2ccccn2)s1)N1CCC2(CC1)O[C@@H]1CC[C@@H](c3cc(F)cc(F)c3)N1C2=O` [Example 6.45, (5′S,7a′R)-5′-(3,5-difluorophenyl)-1-[5-(pyridin-2-yl)-1,3,4-thiadiazole-2-carbon-yl]tetrahydro-3′H-spiro[piperidine-4,2′-pyrrolo[2,1-b][1,3]oxazol]-3′-one], the half-maximal effective concentration (EC50) was determined as 451 nM. As for `O=C(c1cnn2ccccc12)N1CCC2(CC1)O[C@@H]1CC[C@@H](c3cc(F)cc(F)c3)N1C2=O` [Example 5.72, (5′S,7a′R)-5′-(3,5-difluoro-phenyl)-1-(pyrazolo[1,5-a]-pyridine-3-carbonyl)tetra-hydro-3′H-spiro[piperidine-4,2′-pyrrolo[2,1-b]oxazol]-3′-one], the figure is 30.8 nM; as for `O=C(c1nccs1)N1CCC2(CC1)O[C@@H]1CC[C@@H](c3cc(F)cc(F)c3)N1C2=O` [Example 5.35, (5′S,7a′R)-5′-(3,5-difluoro-phenyl)-1-(thiazole-2-carbonyl)tetrahydro-3′H-spiro[piperidine-4,2′-pyrrolo[2,1-b]oxazol]-3′-one], 25 nM. Turning to `Cc1oncc1C(=O)N1CCC2(CC1)O[C@@H]1CC[C@@H](c3cc(F)cc(F)c3)N1C2=O` [Example 6.60, (5′S,7a′R)-5′-(3,5-difluorophenyl)-1-(5-methyl-1,2-oxazole-4-carbonyl)tetrahydro-3′H-spiro[piperidine-4,2′-pyrrolo[2,1-b] [1,3]oxazol]-3′-one], the EC50 was found to be 95 nM. The value for `N#Cc1ccc(C(=O)N2CCC3(CC2)O[C@@H]2CC[C@@H](c4cc(F)cc(F)c4)N2C3=O)c(F)c1` [Example 5.20, 4-((5′S,7a′R)-5′-(3,5-difluorophenyl)-3′-oxo-tetrahydro-3′H-spiro [piperidine-4,2′-pyrrolo-[2,1-b]oxazole]-1-carbon-yl)-3-fluorobenzonitrile] was 212 nM.

As usually defined, the EC50 is the concentration that produces a half-maximal response.
